ChEMBL document CHEMBL1155703, “Sequences and antimycoplasmic properties of longibrachins LGB II and LGB III, two novel 20-residue peptaibols from Trichoderma longibrachiatum” (J Nat Prod, 2001)
Values after ≈ are worked out from the molar mass of the structure shown. Square brackets hold non-standard residues; d marks the D form. Peptide text beside a SMILES is read from it. * marks the point of attachment. X2 = OC[C@H](Cc1c[nH]c2ccccc12)N*; Phe(ol) = N[C@H](CO)Cc1ccccc1; X1 = COC[C@H](Cc1ccccc1)N*; Aib = CC(C)(N)C(=O)O

Tests used:
[1] = Bilayer membrane permeabilization assessed as lipid to peptide ratio allowing 50% leakage of entrapped carboxyfluorescein from egg phosphatidylcholine-cholesterol liposomes at 1.36 uM at 20 mins by spectrofluorimetry; type: physicochemical
[2] = Bilayer membrane permeabilization assessed as lipid to peptide ratio allowing 50% leakage of entrapped carboxyfluorescein from egg phosphatidylcholine-cholesterol liposomes at 0.18 uM at 20 mins by spectrofluorimetry; type: physicochemical
[3] = Bilayer membrane permeabilization assessed as lipid to peptide ratio allowing 50% leakage of entrapped carboxyfluorescein from egg phosphatidylcholine-cholesterol liposomes at 0.45 uM at 20 mins by spectrofluorimetry; type: physicochemical
Spiroplasma citri = test: Antimicrobial activity against Spiroplasma citri R8A2 after 2 hrs; type: functional; details: R8A2, 2 h
Spiroplasma floricola = test: Antimicrobial activity against Spiroplasma floricola BNR1 after 2 hrs; type: functional; details: for MIC: Spiroplasma floricola, BNR1, 2 h
[4] = test system: Mycoplasmoides gallisepticum; test: Antimicrobial activity against Mycoplasma gallisepticum S6 after 2 hrs; type: functional; details: for MIC: Mycoplasmoides gallisepticum, S6, 2 h
[5] = test system: Mycoplasma mycoides subsp. mycoides SC; test: Antimicrobial activity against Mycoplasma mycoides subsp. mycoides SC KH3J after 2 hrs; type: functional
Acholeplasma laidlawii = test: Antimicrobial activity against Acholeplasma laidlawii PG-8A after 2 hrs; type: functional; details: for MIC: Acholeplasma laidlawii, PG-8A, 2 h
Spiroplasma apis = test: Antimicrobial activity against Spiroplasma apis B31 after 2 hrs; type: functional; details: for MIC: Spiroplasma apis, B31, 2 h
[6] = Bilayer membrane permeabilization assessed as lipid to peptide ratio allowing 50% leakage of entrapped carboxyfluorescein from egg phosphatidylcholine-cholesterol liposomes at 0.36 uM at 20 mins by spectrofluorimetry; type: physicochemical
[7] = Bilayer membrane permeabilization assessed as lipid to peptide ratio allowing 50% leakage of entrapped carboxyfluorescein from egg phosphatidylcholine-cholesterol liposomes at 0.98 uM at 20 mins by spectrofluorimetry; type: physicochemical

CC[C@H](C)[C@H](NC(=O)C(C)(C)NC(=O)[C@@H](NC(=O)[C@@H]1CCCN1C(=O)C(C)(C)NC(=O)[C@H](CC(C)C)NC(=O)[C@H](CO)NC(=O)C(C)(C)NC(=O)C(C)(C)NC(=O)C(C)(C)NC(=O)[C@H](CCC(N)=O)NC(=O)C(C)(C)NC(=O)C(C)(C)NC(=O)[C@H](C)NC(=O)[C@H](C)NC(=O)C(C)(C)NC(C)=O)C(C)C)C(=O)N[C@@H](CCC(N)=O)C(=O)N[C@@H](CCC(=O)O)C(=O)N[C@H](CO)Cc1c[nH]c2ccccc12 (Ac-[Aib]AA[Aib][Aib]Q[Aib][Aib][Aib]SL[Aib]PV[Aib]IQE-X2)
Ratio [1]: 295

CC[C@H](C)[C@H](NC(=O)C(C)(C)NC(=O)[C@@H](NC(=O)[C@@H]1CCCN1C(=O)C(C)(C)NC(=O)[C@H](CC(C)C)NC(=O)[C@H](CO)NC(=O)C(C)(C)NC(=O)C(C)(C)NC(=O)C(C)(C)NC(=O)[C@H](CCC(N)=O)NC(=O)C(C)(C)NC(=O)C(C)(C)NC(=O)[C@H](C)NC(=O)[C@H](C)NC(=O)C(C)(C)NC(C)=O)C(C)C)C(=O)N[C@@H](CCC(N)=O)C(=O)N[C@@H](CCC(N)=O)C(=O)N[C@H](CO)Cc1c[nH]c2ccccc12 (Ac-[Aib]AA[Aib][Aib]Q[Aib][Aib][Aib]SL[Aib]PV[Aib]IQQ-X2)
Ratio [2]: 2220

COC[C@H](Cc1ccccc1)NC(=O)[C@H](CCC(N)=O)NC(=O)[C@H](CCC(=O)O)NC(=O)C(C)(C)NC(=O)C(C)(C)NC(=O)[C@@H](NC(=O)[C@@H]1CCCN1C(=O)C(C)(C)NC(=O)[C@H](CC(C)C)NC(=O)CNC(=O)C(C)(C)NC(=O)[C@@H](NC(=O)C(C)(C)NC(=O)[C@H](CCC(N)=O)NC(=O)[C@H](C)NC(=O)C(C)(C)NC(=O)[C@H](C)NC(=O)C(C)(C)NC(=O)[C@H](C)NC(=O)C(C)(C)NC(C)=O)C(C)C)C(C)C (Ac-[Aib]A[Aib]A[Aib]AQ[Aib]V[Aib]GL[Aib]PV[Aib][Aib]EQ-X1)
Ratio [3]: 1335

CC(=O)NC(C)(C)C(=O)N[C@@H](C)C(=O)NC(C)(C)C(=O)N[C@@H](C)C(=O)NC(C)(C)C(=O)N[C@@H](C)C(=O)N[C@@H](CCC(N)=O)C(=O)NC(C)(C)C(=O)N[C@H](C(=O)NC(C)(C)C(=O)NCC(=O)N[C@@H](CC(C)C)C(=O)NC(C)(C)C(=O)N1CCC[C@H]1C(=O)N[C@H](C(=O)NC(C)(C)C(=O)NC(C)(C)C(=O)N[C@@H](CCC(=O)O)C(=O)N[C@@H](CCC(N)=O)C(=O)N[C@H](CO)Cc1ccccc1)C(C)C)C(C)C (Ac-[Aib]A[Aib]A[Aib]AQ[Aib]V[Aib]GL[Aib]PV[Aib][Aib]EQ[Phe(ol)])
MIC (Spiroplasma citri): 6.25 µM (≈ 12.1 µg/mL) | MLC (Spiroplasma floricola): 3.12 µM (≈ 6.05 µg/mL) | MIC (Spiroplasma floricola): 12.5 µM (≈ 24.2 µg/mL) | MLC [4]: 3.12 µM (≈ 6.05 µg/mL) | MIC [4]: 6.25 µM (≈ 12.1 µg/mL) | MIC [5]: 12.5 µM (≈ 24.2 µg/mL) | MLC (Acholeplasma laidlawii): 3.12 µM (≈ 6.05 µg/mL) | MIC (Acholeplasma laidlawii): 1.56 µM (≈ 3.02 µg/mL) | MLC (Spiroplasma apis): 3.12 µM (≈ 6.05 µg/mL) | MIC (Spiroplasma apis): 12.5 µM (≈ 24.2 µg/mL)

CC(=O)NC(C)(C)C(=O)N[C@@H](C)C(=O)NC(C)(C)C(=O)N[C@@H](C)C(=O)NC(C)(C)C(=O)N[C@@H](C)C(=O)N[C@@H](CCC(N)=O)C(=O)NC(C)(C)C(=O)N[C@H](C(=O)NC(C)(C)C(=O)NCC(=O)N[C@@H](CC(C)C)C(=O)NC(C)(C)C(=O)N1CCC[C@H]1C(=O)N[C@H](C(=O)NC(C)(C)C(=O)NC(C)(C)C(=O)N[C@@H](CCC(N)=O)C(=O)N[C@@H](CCC(N)=O)C(=O)N[C@H](CO)Cc1ccccc1)C(C)C)C(C)C (Ac-[Aib]A[Aib]A[Aib]AQ[Aib]V[Aib]GL[Aib]PV[Aib][Aib]QQ[Phe(ol)])
Ratio [6]: 1667

CC(=O)NC(C)(C)C(=O)N[C@@H](C)C(=O)NC(C)(C)C(=O)N[C@@H](C)C(=O)NC(C)(C)C(=O)NC(C)(C)C(=O)N[C@@H](CCC(N)=O)C(=O)NC(C)(C)C(=O)N[C@H](C(=O)NC(C)(C)C(=O)NCC(=O)N[C@@H](CC(C)C)C(=O)NC(C)(C)C(=O)N1CCC[C@H]1C(=O)N[C@H](C(=O)NC(C)(C)C(=O)NC(C)(C)C(=O)N[C@@H](CCC(N)=O)C(=O)N[C@@H](CCC(N)=O)C(=O)N[C@H](CO)Cc1ccccc1)C(C)C)C(C)C (Ac-[Aib]A[Aib]A[Aib][Aib]Q[Aib]V[Aib]GL[Aib]PV[Aib][Aib]QQ[Phe(ol)])
Ratio [7]: 1820

CC(=O)NC(C)(C)C(=O)N1CCC[C@H]1C(=O)NC(C)(C)C(=O)N[C@@H](C)C(=O)NC(C)(C)C(=O)N[C@@H](C)C(=O)N[C@@H](CCC(N)=O)C(=O)NC(C)(C)C(=O)N[C@H](C(=O)NC(C)(C)C(=O)NCC(=O)N[C@@H](CC(C)C)C(=O)NC(C)(C)C(=O)N1CCC[C@H]1C(=O)N[C@H](C(=O)NC(C)(C)C(=O)NC(C)(C)C(=O)N[C@@H](CCC(N)=O)C(=O)N[C@@H](CCC(N)=O)C(=O)N[C@H](CO)Cc1ccccc1)C(C)C)C(C)C [ALAMETHICIN F50] (Ac-[Aib]P[Aib]A[Aib]AQ[Aib]V[Aib]GL[Aib]PV[Aib][Aib]QQ[Phe(ol)])
MIC (Spiroplasma citri): 3.12 µM (≈ 6.13 µg/mL) | MIC (Spiroplasma floricola): 6.25 µM (≈ 12.3 µg/mL) | MIC [4]: 6.25 µM (≈ 12.3 µg/mL) | MIC [5]: 12.5 µM (≈ 24.5 µg/mL) | MIC (Acholeplasma laidlawii): 1.56 µM (≈ 3.06 µg/mL) | MIC (Spiroplasma apis): 6.25 µM (≈ 12.3 µg/mL)
